Legend:
[1] = test system: RAW264.7; test: Antiinflammatory activity in mouse RAW264.7 cells assessed as inhibition of LPS-induced NO production at 1 uM; format: functional
[2] = test system: RAW264.7; test: Antiinflammatory activity in mouse RAW264.7 cells assessed as inhibition of LPS-induced NO production at 10 uM; format: functional
[3] = Cytotoxicity against mouse RAW264.7 cells assessed as cell proliferation at 1 uM; format: cell-based; details: read-out: Activity
[4] = Cytotoxicity against mouse RAW264.7 cells assessed as cell proliferation at 10 uM; format: cell-based; details: read-out: Activity
[5] = test system: RAW264.7; test: Antiinflammatory activity in mouse RAW264.7 cells assessed as inhibition of LPS-induced NO production; format: functional, cell-based

| IC50 [5] [µM] | Compound | inhibition at 1 µM [1] [%] | inhibition at 10 µM [2] [%] | viability at 1 µM [3] [%] | viability at 10 µM [4] [%] |
| --- | --- | --- | --- | --- | --- |
| 14 | COc1cc(/C=C/C(=O)N2CCCCC2=O)cc(OC)c1OC | 1 | 46 | 107 | 101 |
| 80 | COc1cc(/C=C/C(=O)N2CCCC2=O)cc(OC)c1OC | 1 | 28 | 105 | 102 |
| 64 | CCC(=O)NC(=O)/C=C/c1cc(OC)c(OC)c(OC)c1 | -1 | 16 | 97 | 103 |
| 64 | COc1cc(/C=C/C(=O)N2CCC2=O)cc(OC)c1OC | 1 | 22 | 97 | 92 |
| 341 | COc1cc(/C=C/C(=O)NC(C)=O)cc(OC)c1OC | -1 | 16 | 104 | 104 |
| 3 | COc1cc(/C=C/C(=O)N2CCC=CC2=O)cc(OC)c1OC [PIPLARTINE] | 11 | 91 | 115 | 77 |
